Measured values: US20230121797A1, “A COMBINATION OF FLAVONOIDS AND SPHINGOSINE 1 PHOSPHATE LYASE INHIBITORS FOR THE TREATMENT OF LUNG INFLAMMATION” (AC BIOSCIENCE SA, priority 2020, published 2023)
Read-outs that look alike come from different tables or passages of the source.

Legend:
[1] = system: circulating lymphocytes; conditions: mice, cited from earlier work
[2] = system: circulating lymphocytes; conditions: human subjects, cited from earlier work
[3] = system: Human neutrophils; test: ROS production by activated neutrophils, luminol chemiluminescence; format: cell-based; conditions: for inhibition of the ROS production: DHQ 1p M in the assay medium
Method: ROS production is measured using a chemiluminescence standard procedure: briefly, One hundred microliters of human neutrophils (4×10^6/mL) were primed with TNF-α at 37° C. for 25 minutes. 100 μL luminol (1 μM final concentration) and HRP (62.5 U/mL final concentration) in HBSS were added, and 150-μL aliquots were transferred to a prewarmed 96-well luminometer plate. Light emission was recorded by a Berthold MicroLumat Plus luminometer (Berthold Technologies, Hartfordshire, United Kingdom) (data output is in relative light units per second).
In order to further investigate the effect of DHQ on the oxidative burst of neutrophils, the measurement of the ROS production by chemoluminescence has been used which detect both surperoxide anion and hydrogen peroxide. […] This inhibitory effect can be considered as very efficient regarding the fact that the addition of 1p M in the assay medium results in around 80% inhibition of the ROS production in both experiments. The inhibition is not due to a ROS scavenging (as measured by cyt. C reduction) but due to the inhibition of NADPH oxidase.

[4] = system: neutrophils; test: activation of neutrophils stimulated by LPS or PMA; format: cell-based
Text: Flavonoids are the largest group of naturally occurring polyphenolic compounds which have shown diverse biological activities depending of their chemical structure including anti-viral activities against a variety of viruses and potent immune-modulating and inflammatory activities. Among flavonoids, Quercetin, and its bioavailable derivatives such as isoquercetin, offer good perspectives to develop new therapeutics to treat cancer, viral infection and pathogenic inflammation (reviewed in Li et al, 2016). Flavonoids have potent anti-inflammatory activities.

[5] = system: Human neutrophils; test: cytochrome c reduction rate (superoxide anion production) by activated neutrophils; format: cell-based; conditions: Resting neutrophils
[6] = system: Human neutrophils; test: as above; format: cell-based
Method: Human neutrophils (2×10^6/mL) were incubated in HBSS with TNF-α at 37° C. for 25 minutes. Cells were stimulated with FMLP or PMA in the presence of cytochrome c (1.2 mg/mL final), and the optical density of the supernatants was determined by spectrophotometry (550 nm). For both PMA or FLMP as PMN activators, the IC50 for DHQ inhibition is around 8 μM.
When activated by opsonized bacteria, zymozan, FMLP (Formyl-Methionyl-Leucyl-Phenylalanine) or PMA (phorbolmyristate acetate), neutrophils undergo an oxidative burst resulting in the production of superoxide anion and subsequent hydrogen peroxide. The oxidative burst is mainly mediated by the NADPH oxidase activation, enzyme responsible of the superoxide anion production. […] This effect may come from either a direct anion superoxide scavenging or from the inhibition of NADPH oxidase activation.

[7] = system: PMN; test: oxygen consumption of triggered PMN; format: cell-based; conditions: triggered by PMA, FMLP and opsonized zymosan; data not shown
[8] = system: LPS-stimulated whole blood; conditions: cited from earlier work

C/C(=N\O)c1nc([C@@H](O)[C@H](O)[C@H](O)CO)c[nH]1 [Compound 2]
lymphopenia ([1]; single oral doses lower than 30-100 mg/kg): minimal to non-statistically significant effect
lymphopenia ([1]; single oral doses of 30-100 mg/kg): 40-60%
depletion of circulating lymphocytes ([1]; single oral doses, 18 h after dosing): up to 60%
tolerability ([2]; all dose groups): generally well tolerated
decrease in peripheral lymphocytes ([2]; single ascending dose, highest administered dose of 180 mg): ~50%

O=C1c2c(O)cc(O)cc2O[C@H](c2ccc(O)c(O)c2)[C@H]1O [DHQ, Dihydroquercetin]
T. half (rise) ([3]; FMLP 10−6 Ml, DHQ 1, 10 or 100 μM, concentration of samples 2-4 not given): 1.55
inhibition of the ROS production ([3]; neutrophils activated by FMLP): around 80%
inhibition of the ROS production ([3]; neutrophils activated by PMA): around 80%
effect on the activation of neutrophils [4]: strong inhibitory effect
cytochrome c reduction (anion superoxide production) ([5]; DHQ 1 μM): 0.000 dDO/min
cytochrome c reduction (anion superoxide production) ([5]; DHQ 10 μM): 0.036 dDO/min
cytochrome c reduction (anion superoxide production) ([5]; DHQ 100 μM): 0.086 dDO/min
cytochrome c reduction (anion superoxide production) ([6]; +FMLP, DHQ 1 μM): 0.144 dDO/min
cytochrome c reduction (anion superoxide production) ([6]; +FMLP, DHQ 10 μM): 0.105 dDO/min
cytochrome c reduction (anion superoxide production) ([6]; +FMLP, DHQ 100 μM): 0.040 dDO/min
cytochrome c reduction (anion superoxide production) ([6]; +PMA, DHQ 1 μM): 0.110 dDO/min
cytochrome c reduction (anion superoxide production) ([6]; +PMA, DHQ 10 μM): 0.070 dDO/min
cytochrome c reduction (anion superoxide production) ([6]; +PMA, DHQ 100 μM): 0.021 dDO/min
IC50 ([6]; Homo sapiens, Neutrophil, PMA as PMN activator, neutrophils incubated with TNF-α, read-out: IC50 for DHQ inhibition of cytochrome c reduction rate (superoxide anion production)): ~8 µM
oxygen consumption of PMN [7]: strongly inhibits

O=c1c(O)c(-c2ccc(O)c(O)c2)oc2cc(O)cc(O)c12 [quercetin]
effect on the activation of neutrophils [4]: strong inhibitory effect
production of the major inflammatory cytokines TNFα, IL-6, IL-8 and IL-10 [8]: decreases the production
